In brackets after ≈: the same amount, converted by molar mass.
Assays:
Assay in all cases: MIC values of wild type strains
Format in all cases: cell-based
[1] = test system: Salmonella paratyphi B (var. L-tartrate+); details: wild type strain Salmonella paratyphi B (var. L-tartrate+); unit assumed
[2] = test system: Salmonella enterica subsp. enterica serovar Hadar; details: wild type strain Salmonella Hadar; unit assumed
[3] = test system: Salmonella enterica subsp. enterica serovar Infantis; details: wild type strain Salmonella Infantis; unit assumed
[4] = test system: Campylobacter jejuni WS I; details: wild type strain Campylobacter jejuni WS I; unit assumed
Campylobacter coli WS II = details: wild type strain Campylobacter coli WS II; unit assumed
[5] = test system: Campylobacter jejuni WS II; details: wild type strain Campylobacter jejuni WS II; unit assumed
[6] = test system: Salmonella enterica subsp. enterica serovar Virchow; details: wild type strain Salmonella Virchow; unit assumed
Campylobacter coli WS I = details: wild type strain Campylobacter coli WS I; unit assumed

**Q.** With `[H]/N=C(/N)N[C@H]1[C@H](O)[C@@H](O)[C@H](O[C@@H]2O[C@@H](C)[C@](O)(C=O)[C@H]2O[C@@H]2O[C@@H](CO)[C@H](O)[C@@H](O)[C@@H]2NC)[C@@H](N/C(N)=N\[H])[C@@H]1O` [Streptomycin] as the compound, how does the MIC [1] read?
**A.** The MIC was 30 µg/mL (≈ 51.6 µM).

**Q.** What about the MIC [2] of the same compound?
**A.** Its MIC is 25 µg/mL (≈ 43 µM).

**Q.** And the MIC [3]?
**A.** Its MIC is 12.5 µg/mL (≈ 21.5 µM).

**Q.** What about the MIC [4] of the same compound?
**A.** The MIC was 2 µg/mL (≈ 3.44 µM).

**Q.** What about the MIC (Campylobacter coli WS II) of the same compound?
**A.** Its MIC is 1 µg/mL (≈ 1.72 µM).

**Q.** What about the MIC [5] of the same compound?
**A.** The MIC was 2 µg/mL (≈ 3.44 µM).

**Q.** And the MIC [6]?
**A.** The MIC was 12.5 µg/mL (≈ 21.5 µM).

**Q.** And the MIC (Campylobacter coli WS I)?
**A.** Its MIC is 1 µg/mL (≈ 1.72 µM).

**Q.** What does the source list for `C[C@@H]1O[C@@H]1P(=O)(O)O` [fosfomycin]?
**A.** MIC [4]: 25 µg/mL (≈ 181 µM); MIC (Campylobacter coli WS II): 25 µg/mL (≈ 181 µM); MIC [5]: 25 µg/mL (≈ 181 µM); MIC (Campylobacter coli WS I): 25 µg/mL (≈ 181 µM)

From patent US11904008B2, “Preparation of live vaccines” (priority 2012, dated 2024)
